One assay addresses T1, hM4D(Gi) DREADD (Homo sapiens, UniProt P08173, A203G/Y113C).
T1 construct: HA (N); host or cells: primary afferent nociceptors of female C57BL/6 mice transduced in vivo (intraneural AAV6-hSyn-HA-hM4D(Gi)-IRES-mCitrine), as reported by Iyer et al. 2016
T1 sequence (P08173 1-479 Y113C/A203G): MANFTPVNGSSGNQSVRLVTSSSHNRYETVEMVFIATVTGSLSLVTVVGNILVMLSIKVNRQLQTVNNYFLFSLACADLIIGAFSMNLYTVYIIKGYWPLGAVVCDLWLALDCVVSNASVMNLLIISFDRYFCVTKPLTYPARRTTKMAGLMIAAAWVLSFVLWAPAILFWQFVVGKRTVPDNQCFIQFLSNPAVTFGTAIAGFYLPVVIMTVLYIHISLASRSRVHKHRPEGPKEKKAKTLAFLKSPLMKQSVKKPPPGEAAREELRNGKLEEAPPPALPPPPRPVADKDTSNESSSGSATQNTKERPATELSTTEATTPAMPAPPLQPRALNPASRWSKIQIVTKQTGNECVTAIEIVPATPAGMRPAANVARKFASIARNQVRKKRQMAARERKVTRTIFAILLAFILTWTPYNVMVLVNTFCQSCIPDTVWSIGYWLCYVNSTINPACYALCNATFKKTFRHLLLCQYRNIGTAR
The note with it: cited from earlier work.

For assay [1], the target named is T2, alpha 1 GlyR(F207A-A288G) (Homo sapiens, UniProt P23415, A316G/F235A).
T2 construct: expressed in transfected cells; host or cells: trigeminal ganglion neurons of adult Sprague-Dawley rats, transduced in vivo with AAV
T2 sequence (P23415 29-457 F235A/A316G): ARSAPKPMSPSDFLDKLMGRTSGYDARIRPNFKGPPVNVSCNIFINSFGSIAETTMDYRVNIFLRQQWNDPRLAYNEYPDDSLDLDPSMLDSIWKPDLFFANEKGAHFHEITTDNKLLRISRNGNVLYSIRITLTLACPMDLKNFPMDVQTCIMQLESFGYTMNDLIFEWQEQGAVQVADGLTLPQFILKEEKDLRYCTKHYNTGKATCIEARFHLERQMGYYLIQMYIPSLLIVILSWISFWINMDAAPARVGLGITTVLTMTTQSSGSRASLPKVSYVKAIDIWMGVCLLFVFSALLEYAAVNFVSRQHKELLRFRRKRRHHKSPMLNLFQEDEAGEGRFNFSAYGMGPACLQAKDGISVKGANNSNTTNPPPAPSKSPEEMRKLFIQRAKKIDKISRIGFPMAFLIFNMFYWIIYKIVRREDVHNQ
The assay can be described thus: Thermal withdrawal latency assay (infrared laser on shaved cheek) after trigeminal ganglion AAV injection. In kind it is in vivo, Sprague-Dawley rats. The procedure: On day 0, bilateral trigeminal ganglion injections of 10 microliters AAV vector containing the alpha 1 GlyR(F207A-A288G) transgene were performed in adult Sprague-Dawley rats. Two months following AAV injections, a single IP injection of ivermectin 10 mg/kg was administered to rats. The following day, rats were prepared for the thermal latency assay by shaving the fur off of their cheek, up to but not including the whisker pad. They were then placed in a 2.75 inch diameter×8 inch clear polycarbonate cylinder and allowed to acclimate to the environment. The rats naturally positioned themselves so their snout is just outside of the cylinder opening. Under video monitoring, the rats were then exposed to the beam of a 2W, infrared (808 nm) laser illumination focused to project a target size of approximately 1 mm×0.5 mm on the shaved cheek area. The rats then responded to the heat generated by the laser with an abrupt head position change (withdrawal reflex). The sequence was then repeated up to 10 trials on each side. The latency between the laser illumination onset and the head withdrawal reflex was measured from the video with video editing software allowing for frame by frame analysis.

A further assay has as its target T3, GLYR(F207A/A288G) (Homo sapiens, UniProt P23415, A316G/F235A).
T3 construct: expressed in transfected cells; host or cells: rodent dorsal root or trigeminal ganglion neurons transduced in vivo with AAV6 vectors
T3 sequence (P23415 29-457 F235A/A316G): T2 sequence (P23415 29-457 F235A/A316G)
The assay is described as follows: Pain and anxiety behavioral assays in rodent models of chronic pain (CCI or SNI). In kind it is in vivo. The note with it: rodents with CCI or SNI, intraganglionic or intrathecal AAV6 GlyR(F207A/A288G) vector; 0.1-10.0 mg/kg per day. The source says: Day 0: Chronic pain is induced in rodent trigeminal ganglia or dorsal root ganglia using an established peripheral nerve injury method such as the chronic constriction injury (CCI, CO/CFA) or spared nerve injury (SNI) models. See Bennett & Xie. Pain. 1988, Decosterd & Woolf Pain. 2000, and Imamura, Kawamoto, & Nakanishi. Exp. Brain Res. 1997. In some instances, nerve injury may occur after viral vector injection.
Day 7: Intraganglionic or intrathecal injection of 10^8-10^10 vector genomes of AAV6(Y705F+Y731F+T492V)-HSYN-GLYR(F207A/A288G)-FLAG or AAV6-GLY(HSYN-GLYR(F207A/A288G)-FLAG in a volume of approximately 1.0-10 μL is performed in one or multiple dorsal root ganglia or trigeminal ganglia using published methods. See Vit, Ohara, Sundberg et al. Mol Pain. 2009 and Towne, Fischer, Kostic, et al. J Neurosci Methods. 2011, and Pertin, et al. Mol Pain. 2009.
Weeks 2-12 post CCI or SNI: Ivermectin is administered via oral gavage (P0), intraperitoneal injection (IP), subcutaneous injection (SC), or in drinking water for a final dose of 0.1-10.0 mg/kg per day. Pain and anxiety behavioral assays are performed to quantify level of analgesia using established nociception assay including operant assays, mechanical allodynia/hyperalgesia via Von Frey filaments, thermal allodynia/hyperalgesia via Hargreaves method, or anxiety behaviors via elevated plus maze. See review Odd-Geir Berge. […]

Assay [2] deals with T4, human α-1 GlyRM(F207A+A288G) (Homo sapiens, UniProt P23415, A316G/F235A).
T4 construct: host or cells: mouse dorsal horn neurons transduced in vivo with the AAV vector
T4 sequence (P23415 29-457 F235A/A316G): T2 sequence (P23415 29-457 F235A/A316G)
The assay is described as follows: Mechanical withdrawal threshold (von Frey, up-down method) in spared nerve injury (SNI) model. In kind it is in vivo, mice. The source says: The expression cassette containing a human synapsin-1 (hSYN) promoter driving expression of the human α-1 GlyRM(F207A+A288G)-FLAG cDNA was constructed using standard molecular biology techniques (see also, FIG. 5 and SEQ ID NO:1 for description of the vector). This cassette was subcloned into a self-complementary AAV bacmid, purified, transfected into Sf9 insect cells to produce recombinant bacuvlovirus, and then amplified. Sf9 cells were double infected using the amplified recombinant baculovirus containing the hSYN-GlyRM cassette and another recombinant baculovirus containing the Rep and AAV6(Y705+731F+T492V) Cap genes to produce recombinant AAV vectors. These vectors were purified, viral titer was determined using qPCR (2.15e^13 vg/ml), and SDS-PAGE was used to verify the purity of AAV vectors (Virovek).
A dorsal hemilaminectomy was made at the level of the lumbar enlargement to expose two segments (about 1.5-2 mm) of lumbar spinal cord, after which the dura mater was incised and reflected. The viral solution was loaded into a glass micropipette (prefilled with mineral oil). The micropipette was connected to a manual micro-injector mounted on a stereotactic apparatus. The viral solution was targeted to the dorsal horn (left side). Along the rostro-caudal axis within the exposed region, 6 injections of 240 nl each were performed, in an equidistant linear fashion. After each injection, 1 min of resting time was observed and then the muscle layer was sutured, the skin closed with staples, and the animals were allowed to recover with heated-pad before they were returned to their home cages. Animals were perfused for histological analysis after the last behavior test.
To produce mechanical hypersensitivity in a model that mimics a neuropathic pain condition, the spared nerve injury (SNI) model, a validated model of mechanical allodynia was used (Shields et al., 2003, The Journal of Pain, 4, 465-470). This model was produced by the sectioning of the common peroneal and the sural nerves and isolating the tibial branch (see FIG. 7). Mechanical withdrawal threshold was assessed by placing mice on an elevated wire-mesh grid and stimulating the plantar surface of the hindpaw with von Frey filaments. The up-down method of Chaplan & Yaksh was used to determine mechanical thresholds before the spinal cord injection of the AAV-GlyRM. […] The hindpaw ipsilateral and contralateral to the vector injection was tested. […] Motor coordination was tested using an accelerating rotarod (Stoelting, USA) at a maximum speed of 33 rpm. The duration that the mouse spent on the rotarod was recorded, with a cut-off at 300 sec. Each mouse went through three training trials and was tested two hours later. Subsequently, all mice received a single IP injection of ivermectin (15 mg/kg or 10 mg/kg) and mechanical thresholds were again tested using the up-down method at 1, 2, 5, 7, and 13 days post SNI. […] The reversal lasted for at least 5 days. […] Animals were then perfused for histology.

The values below come from patent US20180193414A1, “COMPOSITIONS AND METHODS FOR TREATING NEUROLOGICAL DISORDERS” (Coda Biotherapeutics, Inc., priority 2015, published 2018).

As to `C[N+]1([O-])CCN(C2=Nc3cc(Cl)ccc3Nc3ccccc32)CC1` [CNO, clozapine-N-oxide], the mechanical withdrawal thresholds result at hM4D(Gi) DREADD (hM4D+ mice (AAV6-hSyn-HA-hM4D(Gi)-IRES-mCitrine intraneural), intraperitoneal administration) is “increased mechanical withdrawal thresholds”. Also, the “Hargreaves thresholds (thermal sensation)” value at hM4D(Gi) DREADD (hM4D+ mice, after administration) is “Strong inhibition of Hargreaves thresholds”.
As to ivermectin, in assay [1] (rats two months after bilateral trigeminal ganglion AAV injection, day after single IP 10 mg/kg, pre-treatment average 2.69 seconds), the “average thermal withdrawal latency” value came to 5.19 s. Besides, the “hypoalgesic threshold shift in thermal pain sensitivity” value in assay [1] (rats, post versus pre IP 10 mg/kg) was found to be 92.9%. Also, on GLYR(F207A/A288G), the “improvement in pain related behaviors or anxiety over controls” value is recorded as 10%-500%. The “duration of analgesia in the SNI model” value in assay [2] (mice injected with SWB001, single IP injection of ivermectin (15 mg/kg) (FIG. 7)) lay within 7 to 10 days. In addition, the “mechanical hypersensitivity (mechanical thresholds, von Frey)” value in assay [2] (mice with AAV-GlyRM injected into dorsal horn, SNI, ipsilateral hindpaw, single IP injection 15 mg/kg) is given as “complete reversal of the mechanical hypersensitivity”. For the same compound, in assay [2] (mice, SNI, AAV-GlyRM, 10 mg/kg IP on the 13th day, after thresholds had returned to post-injury baseline), the “mechanical thresholds after repeat dose” value was “recovery to non-injury baseline thresholds”. Besides, in assay [2] (mice, SNI, AAV-GlyRM, followed for 48 hours after 10 mg/kg IP), the “mechanical thresholds during follow-up after repeat dose” value is recorded as “thresholds remained at baseline”. In assay [2] (mice, SNI, AAV-GlyRM, single IP injection 15 mg/kg), the “duration of the reversal of mechanical hypersensitivity” value was “at least 5 days”. In addition, in assay [2] (mice, contralateral hindpaw without vector, single IP injection 15 mg/kg), the “mechanical threshold on the contralateral side (absence of vector)” value was “no measurable effect”.
